The conditions of data set [1]: cited from earlier work; for plasma insulin levels: hyperglycemia (10.4 mmol/l, 187 mg/dl), GIP 2.0, GLP-1 1.5 pmol·kg−1·min−1; for insulinotropic action: normal subjects during euglycemia.
For data set [2] the following is noted: when GIP is administered; cited from earlier work.
Another data set deals with restrained rats. Particulars: rat, in vivo, sc; cited from earlier work.
Data set [3] deals with conscious, chronically instrumented dogs. As to the kind of experiment: Acute graded infusion, hemodynamic effects in conscious chronically instrumented dogs (normal and advanced dilated cardiomyopathy). The data set is classed as in vivo, dog. The text has this: FIGS. 2a-2d show the dose response to rGLP-1 in normal conscious dogs and conscious dogs with advanced DCM compared to the response to the sympathomimetic, dobutamine.
FIG. 1 illustrates characteristic instrumentation of conscious, chronically instrumented dogs studied in the laboratory. Under sterile surgical technique, the animals are instrumented as indicated and allowed to recover fully from their surgery. At the time, they are taught to lie quietly on the experimental table before study. To determine if acute GLP-1 (7-36 amide) infusion is associated with hemodynamic effects in conscious chronically instrumented dogs, graded infusions for ten minutes at doses of 1.25, 2.5, 5, 10 and 20 pmol/kg/min in six normal dogs and in six dogs with advanced dilated cardiomyopathy were studied. The response of the graded infusion to the classic iontopic agent, Dobutamine, (2.5, 5, 7.5, 10 and 15μ/kg/min.) was compared. […] Nikolaidis, L A, Hentosz, T, Doverspike, A, et al., “Catecholamine stimulation is associated with impaired myocardial O2 utilization in heart failure,” Cardiovas. Res., 2002;53:392-404, incorporated by reference herein.

In another data set the test system is normal dogs. As to the kind of experiment: 48 hour continuous intravenous infusion in normal dogs, hemodynamic effect. Particulars: 1.5 pmol/kg/min i.v. 48 hour. The data set is classed as in vivo, dog. How it is done: (§1) A 48 hour continuous intravenous infusion of GLP-1 (7-36 amide), (1.5 pmol/kg/min) in five normal dogs to determine the hemodynamic effect of chronic infusion in the absence of dilated cardiomyopathy was conducted. […] FIGS. 3-5 illustrates the effects of GLP-1 (7-36 amide) infusion (1.5 pmol/kg/min) intravenously for 48 hours in 20 conscious, chronically instrumented animals with advanced heart failure. These effects have been compared to similarly instrumented animals with advanced heart failure that received a control saline infusion of equal volume ([…]) illustrate the hemodynamic effects of chronic GLP-1 infusion in advanced DCM. GLP-1 (7-36 amide) infusion was associated with a restoration of left ventricular pressure, improvement in contractility, improvement in cardiac output, and reduction in heart rate and LVEDP. […] GLP-1 was associated with restoration of endothelial dependent vaso dilatation response to acetylcholine (FIG. 7). […] GLP-1 had […] increased plasma insulin levels in the setting of euglycemia.

For data set [4], the system named is conscious dogs with advanced DCM. As to the kind of experiment: 48 hour intravenous infusion in conscious dogs with advanced heart failure (DCM): hemodynamics, sympathetic activity, coronary vasodilation. The data set is classed as in vivo, dog.
Description: FIGS. 3a-3d show the effects of r GLP-1 on LV systolic pressure, LV end diastolic pressure, LV dP/dt, and heart rate in conscious dogs with advanced DCM compared to saline control.
FIGS. 4a-4d show the effects of rGLP-1 on cardiac output, stroke volume, LV ejection fraction, systemic vascular resistance in conscious dogs with advanced DCM compared to saline control.
FIGS. 5a and 5b show the effects of rGLP-1 on stroke work and LV external efficiency in conscious dogs with advanced DCM compared to saline control.
FIGS. 6a and 6b show the effects of rGLP-1 on transmyocardial norepinephrine uptake as a reflection of sympathetic drive to the myocardium in conscious dogs with advanced DCM compared to saline controls.
FIGS. 7a and 7b show the effects of rGLP-1 on endothelial dependent coronary vasodilation in conscious dogs. Advanced DCM was associated with impaired coronary flow responses to acetylcholine. These responses were restored following 48-hour infusion of rGLP-1. The response to the non-endothelial dependent vasodilator, nitroglycerine was unaffected.
as §1

The test system is the same in data set [5]. As to the kind of experiment: Myocardial substrate uptake and metabolic parameters in dogs with advanced DCM (Table 1). The data set is classed as in vivo, dog. Particulars: for Glucose myocardial uptake / Lactate myocardial uptake / NE (transmyocardial norepinephrine uptake) / NEFA myocardial uptake / Insulin/Glucagon: GLP-1 group; for Insulin/Glucagon: insulin pmol/L to glucagon pg/ml. The method, then: as §1

In data set [6] the test system is adults presenting with severe acute myocardial infarction. The experiment in a line: 72 hour continuous intravenous infusion in adults with severe acute myocardial infarction. Format: in vivo, human. How it is done:
The effects of continuous intravenous infusion of GLP-1 (1.5 pmol/kg/min) intravenously for 72 hours was studied in ten adults presenting with severe acute myocardial infarction. These were compared to eleven adults with similar large myocardial infarction (LVEF<35%) all of whom underwent percutaneous coronary intervention and subsequently were treated for 72 hours thereafter.

A further data set has as its system rat cardiomyocytes. Particulars: in vitro; cited from earlier work.
Setting [7] is: hyperglycemia-only control ~280.
Where [8] appears, read: graded infusions for ten minutes, 1.25-20 pmol/kg/min, normal dogs and dogs with advanced dilated cardiomyopathy.
Setting [9] is: 1.5 pmol/kg/min i.v. 48 hours, advanced heart failure, vs saline.
The mark [10] stands for this setting: 48-hour infusion, advanced DCM, FIG. 7.
[11] abbreviates: Baseline (before CHF and infusion).
Setting [12] is: advanced DCM, vs saline controls.

We go through four molecules from patent publication US20040097411A1, “Method of treating left ventricular dysfunction” (Allegheny-Singer Research Institute, priority 2002, published 2004).

Read-outs that look alike come from different tables or passages of the source.

Regarding “glucose-dependent insulinotropic polypeptide [GIP]”, the plasma insulin levels was around 150 μU/ml in [1] (hyperglycemia-only control 47) and around 900 pmol/L in data set [1] (setting [7]). In addition, the insulinotropic action entry in [1] is given as “not”. The “increase of B-cell sensitivity to second-generation sulfonylurea” value in data set [2] was 2 fold.
For exendin-4 [excendin 4], in the data set on restrained rats, the blood pressure entry is listed as “hypertension” and the heart rate entry is “tachycardia”.
For the molecule `CC(CCc1ccc(O)cc1)NCCc1ccc(O)c(O)c1` (stereo not drawn) [Dobutamine, reference compound], the “hemodynamic effects of graded infusion” value was “de-sensitized effects” in data set [3] (dogs in heart failure) and “predictable effects” in data set [3] (normal dogs).
Regarding GLP-1 (7-36 amide), in [3] (setting [8]), the cardiac output result is recorded as “no significant, dose related effects”; the heart rate entry is on record as “no significant, dose related effects”; the “left ventricular dP/dt” value is given as “no significant, dose related effects”; the left ventricular pressure result was “no significant, dose related effects”. Moreover, the “acute hemodynamic effects (dose response)” value in [3] (normal conscious dogs and conscious dogs with advanced DCM, FIGS. 2a-2d) is recorded as “no acute hemodynamic effects”. In the data set on normal dogs, the “hemodynamic effects of chronic infusion” value is reported as “no significant hemodynamic effects”. Besides, in data set [4] (setting [9]), the LVEDP result is given as “reduction”, the cardiac output entry is listed as “improvement”, the contractility entry is recorded as “improvement” and the heart rate entry is reported as “reduction”. Moreover, the left ventricular pressure entry in data set [4] (setting [9]) is recorded as “restoration”. For the same molecule, in data set [4] (setting [10]), the “endothelial dependent vasodilatation (coronary flow) response to acetylcholine” value was “restoration” and the “response to the non-endothelial dependent vasodilator nitroglycerine” value is on record as “unaffected”. Further, the “endothelial dependent vasodilatation (coronary flow) response to acetylcholine” value in data set [4] (48-hour infusion, advanced DCM, FIG. 7, listed as rGLP-1) was “restored”. Further, the myocardial sympathetic activity entry in data set [4] (infusion compared to saline, FIG. 6) is “suppression”. In data set [5] (24 hrs of infusion), the Glucose myocardial uptake came out at 8.72 ± 1.05 µmol/min, the Lactate myocardial uptake was determined as 3.61 ± 0.62 µmol/min, the “NE (transmyocardial norepinephrine uptake)” value is on record as 26.3 ± 3.1 pmol/min and the NEFA myocardial uptake is 4.53 ± 0.58 µmol/min. In [5] (48 hrs of infusion), the Glucose myocardial uptake was found to be 7.00 ± 0.94 µmol/min, the Lactate myocardial uptake stood at 4.04 ± 0.74 µmol/min, the “NE (transmyocardial norepinephrine uptake)” value came out at 30.5 ± 4.9 pmol/min and the NEFA myocardial uptake was found to be 5.16 ± 0.73 µmol/min. This molecule also displayed an Insulin/Glucagon in data set [5] (48 hrs of infusion) of 3.12 ± 0.24. Moreover, in data set [5] (setting [11]), the Glucose myocardial uptake was 6.67 ± 1.22 µmol/min, the Lactate myocardial uptake stood at 4.78 ± 1.04 µmol/min, the “NE (transmyocardial norepinephrine uptake)” value worked out at 30.9 ± 4.8 pmol/min and the NEFA myocardial uptake turned out to be 5.23 ± 0.83 µmol/min. The molecule further came in with an Insulin/Glucagon in [5] (Baseline) of 1.36 ± 0.21. Besides, in data set [5] (CHF (before infusion)), the Glucose myocardial uptake was determined as 3.44 ± 0.81 µmol/min, the Lactate myocardial uptake amounted to 2.64 ± 0.91 µmol/min, the “NE (transmyocardial norepinephrine uptake)” value came to 18.7 ± 3.6 pmol/min and the NEFA myocardial uptake is 3.17 ± 0.61 µmol/min. Besides, the Insulin/Glucagon in data set [5] (CHF (before infusion)) is on record as 1.79 ± 0.29. Further, the plasma glucagon levels result in [5] (advanced DCM) is “effective in reducing”. For the same molecule, in data set [5] (setting [12]), the myocardial glucose uptake result is reported as “enhanced” and the “ratio of insulin (pmol/L) to glucagon (pg/ml)” value was “significant increase”. Moreover, in [5] (setting of euglycemia), the plasma insulin levels entry was “little effect”. In data set [6] (1.5 pmol/kg/min i.v. 72 hours after PCI, vs standard care, FIG. 8), the left ventricular hemodynamics entry was “overall improvement”. Also, in [6] (patients with large myocardial infarctions, 1.5 pmol/kg/min i.v. 72 hours), the left ventricular function entry is recorded as “improvement”. Besides, the plasma insulin levels in data set [1] (hyperglycemia-only control 47) is around 333 μU/ml. Besides, the plasma insulin levels in data set [1] (setting [7]) is around 2000 pmol/L. Besides, the incretin potency comparison result in data set [1] (insulinotropic action during hyperglycemia) is “more potent than GIP”. Further, in data set [1], the insulinotropic action result is “insulinotropic”. In the data set with rat cardiomyocytes, the cAMP result was “increases” and the myocyte contractility result is listed as “no effect”.
